From PMC11738990, “A small-molecule TNIK inhibitor targets fibrosis in preclinical and clinical models” (Nature Biotechnology, 2024)
Several values for one entry are separate records, joined by “and”; a condition that tells them apart may be missing. Equal entries are not always repeated.

Tests used:
C57BL/6 mice [1] = assay: LPS-induced acute lung injury model; type: in vivo, mouse; details: G3 Dex 10mpk BID; individual animals, Fig 3E-F; listed as Dex;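 also: bronchoalveolar lavage fluid sampled one day after intratracheal LPS challenge, cytokines measured by ELISA in supernatant, lymphocytes counted on Diff-Quick stained cytospin smears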
Method: One day before the first experimental day, animals were grouped. All mice were anesthetized with Zoletil–xylazine (50 mpk and 10 mpk, i.p.). At 0 h, mice received LPS at a dose of 50 μl as 50 μg per mouse (groups 2–5, n = 8 per group) or 50 μl saline (group 1, n = 8 per group) by intratracheal administration. […] In the dexamethasone group (group 5), animals were treated with dexamethasone both 2 h before and 4 h after the LPS challenge. Twenty-four hours after the LPS challenge, animals were euthanized, and BALF samples were collected.
(§1) Mice were first anesthetized with Zoletil–xylazine (50 mpk and 10 mpk, i.p.). Next, a 1.5–2-cm longitudinal incision was made on the ventral side of the neck to expose the trachea by blunt dissection, and curved forceps were placed underneath the trachea. A 10–12-cm piece of suture was then threaded underneath the trachea using forceps. The ends of the suture were then pulled cranially to ‘stretch’ the trachea toward the surgeon. A 20-G needle was then used to poke a hole in the trachea as close to the larynx as possible. A 22-G blunt stainless steel needle connected to PE tubing was placed in the hole and inserted approximately 5–8 mm into the trachea. The cannula was secured in the trachea by tying the suture around it with an overhand knot. A 1-ml syringe containing 0.4 ml saline was gently pushed forward and backward three times to recover BALF fluid. BALF was transferred into empty tubes and stored on ice. This process was repeated twice with 0.3 ml saline for a total volume of 1 ml.
(§2) Total cell numbers were counted with a standard hemocytometer by mixing 20 μl BALF with 20 μl trypan blue. Cytospins were prepared by cytocentrifugation using Cytospins at 106g for 5 min, and then smears of BALF cells were stained with Diff-Quick stain. Cell differentiation was performed by counting at least 400 cells using standard hemocytologic criteria to classify them as alveolar macrophages or monocytes, neutrophils, eosinophils or lymphocytes. The rest of the BALF fluid was centrifuged, and supernatants were collected and stored at −80 °C for cytokine, chemokine and total protein analysis.
(§3) From the collected BALF, concentrations of cytokines were measured from mice in groups 2–7 killed on day 28. Mouse BALF cytokines and chemokines were measured using the ELISA Analysis Kit (Sinobest Bio). Mouse BALF soluble collagen was measured using the Soluble Collagen kit (Biocolor). Mouse lung hydroxyproline content was measured using the Hydroxyproline Assay Kit (Njjcbio).

[2] = test system: cyclin-dependent kinase (CDK)2; details: 0.1 μM; cited from earlier work
C57BL/6 mice [3] = assay: Bleomycin-induced lung fibrosis model; type: in vivo, mouse; details: individual animals
Method: (§4) Mice received bleomycin on day 1 at a dose of 0.66 mg per kg (equivalent to 1 U per kg), in a volume of 50 μl by intratracheal administration, or received saline (sham group). On day 7, dosing with the corresponding compounds was started. The vehicle group (group 1) was treated with 0.5% methylcellulose BID. […] On days 5 and 21, lung function measurement was performed. On day 28, all animals were killed, and blood and tissue samples were collected along with BALF.
(§5) Lung function was measured according to the HDB standard protocol. Expiratory time, relaxation time, peak expiratory flow and peak inspiratory flow were collected and used to calculate Penh data.
as §1, §2, §3
Left lung lobes were removed from each mouse and fixed in 10% NBF solution, embedded in paraffin and processed to obtain 4-μm sections for staining with H&E. H&E-stained slides were scanned using an Aperio ScanScope Model CS2 (Leica) at ×200 magnification. Images were then opened in the HALO Plus 5 workstation (version 2.3, Indica Labs) program. Using the pen annotation tool, the whole-lung section was selected as an annotation layer. The area of vessels was defined as background using the exclusion drawing tool. The total inflammation area was quantified by selecting the dark blue inflammation cells using the pen annotation tool manually. The percentage of H&E staining (inflammation area/total area of the lung) in the selected annotation was then calculated using the program.
Masson’s trichrome staining was conducted using a ready-to-use kit (Trichrome Stain (Masson) Kit, HT15, Sigma-Aldrich) as described by the manufacturer.
Lung sections were cut at a thickness of 4 μm, dried in an oven for 1 h and stained with M&T using our standard protocol.

Sprague Dawley rats = assay: Bleomycin-induced lung fibrosis model, inhalation administration; type: in vivo, rat; details: Pirfenidone 350 mg/kg; individual animals, Fig 4
Method: On day 1 of the study, bleomycin hydrochloride was administered to 8–9-week-old Sprague Dawley rats at a final concentration of 1.5 mg ml^−1 in sodium chloride solution (dosed volume at 1.0 ml per kg) by intratracheal atomization (once in the morning and once in the afternoon) to build the pulmonary fibrosis model.
A German PARI compression atomizer (PARI TurboBOY) was set at an aerosol flow rate of 9–10 l min^−1. […] The dilution flow of aerosol was set at 0 l min^−1, and the pumping-out flow from the chamber was set at 6 l min^−1. The fluid rate was set at 0.5 ml min^−1 for test article replenishment. Before nebulization, aerosol-generation conditions were validated three times.
And these parameters were recorded in real time during the experiment.
For concentration assessment, a glass fiber filter membrane (φ = 37 mm) was used to measure aerosol concentrations during drug administration from approximately day 8 to day 28. Sampling was taken at 5 min (±1 min) after drug administration from a random exposure port. […] Aerosol particle size parameters were calculated with the system software: median mass aerodynamic diameter (MMAD), geometric standard deviation, fine particle fraction (percentage of fine particles with MMAD < 5 μm), etc.
On day 29 and before euthanasia, animals were anesthetized with chloral hydrate (90 mg ml^−1, 5 ml per kg, i.p.). Necks were cut longitudinally at the middle to isolate trachea, and a catheter was intubated into the trachea toward the tail direction and fixed with a suture thread. The anesthetized animals were placed into the plethysmography chamber, to which the airway was connected. The AniRes2005 animal lung function-analysis system was used to assess parameters including FVC, airway resistance and pulmonary compliance. The ventilator respiration rate was set to 65 beats per minute; the respiration ratio was set to 20:10; the negative pressure controller was set to 30 cm H2O. FVC detection was set to pressure-control mode, while pressure was set to 30 cm H2O. The startup mode was selected to automatically detect at the end of breath, and the ‘Start’ button was clicked to passively inhale and then turned to exhale after reaching the set pressure value. Next, the ‘Stop’ button was clicked to complete an FVC detection. Each animal was evaluated for FVC at least five times. The final result was the mean value after the maximum and minimum data were excluded for analysis.

C57BL/6 mice [4] = assay: Bleomycin-induced lung fibrosis model, combination with pirfenidone; type: in vivo, mouse; details: PFD 60 BID
Method: as §4, §5
Lung sections were cut at a thickness of 4 μm, dried in an oven for 1 h and stained with M&T using our standard protocol. Briefly, sections were stained with Weigert’s iron hematoxylin working solution for 10 min, stained in Biebrich scarlet–acid fuchsin solution for 10 min, differentiated in phosphomolybdic–phosphotungstic acid solution for 5 min or until the collagen was not red, transferred to aniline blue solution, stained for 1 min and then dedifferentiated in 1% acetic acid solution. Next, sections were dehydrated and coverslipped for subsequent image analysis. For image analysis of collagen deposition, Masson’s trichrome-stained slides were scanned by using Aperio ScanScope Model CS2 (Leica) at ×200 magnification. Images were then opened with HALO. Using the pen tool, the whole left lung section was selected as an annotation layer. The area occupied by blue collagen fibers was measured using the pen tool. The percentage of fibrosis (positive areas) in the selected annotation was then calculated with the program. Fibrosis was expressed as a percentage per lung section.
Sections (4 μm thick) were placed on slides, and, after overnight drying, paraffin was removed with xylene. Next, sections were placed in a graded ethanol series and immersed in distilled water. After heat-induced citrate antigen (pH 6.0) unmasking, sections were immersed in 3% hydrogen peroxide solution for 5 min. […] Next, secondary antibodies conjugated to HRP were added. For image analysis of fibrosis, stained sections were used and scanned with the Aperio CS2 Scanner machine. Images were then opened with HALO. Using the pen tool, the whole left lung section was selected as an annotation layer. The bronchus was excluded in the annotation layer. The area occupied by collagen fibers was measured using the ‘Area Quantification v2.1.3’ module. The percentage of positive areas in the selected annotation was then calculated using the program.

C57BL/6 mice [5] = assay: Unilateral ureteral obstruction (UUO) kidney fibrosis model; details: SB525334 100 mg/kg QD, individual animals, Fig 5C-D;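 also: mice had the left ureter ligated on day 0, received treatment from day 0 through day 14 and were killed on day 14 for kidney analysis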
Method: The surgery took place on two separate days. Mice were divided into two slots based on their body weight before the day of the surgery. On day 0 (day of surgery), UUO surgery was performed after administration of three types of mixed anesthetic agents (medetomidine, midazolam, butorphanol). Mice were shaved at the incision site, the abdomen was cut open, and the left ureter was exteriorized and ligated with 4-0 silk sutures at two points. Finally, the peritoneum and the skin were closed with sutures.
Treatments were applied from day 0 to day 14. And animals were killed on day 14, and blood and tissue samples were collected.
Frozen kidney samples were processed by an alkaline acid hydrolysis method as follows. […] Next, AC buffer (2.2 M acetic acid and 0.48 M citric acid, 400 μl) was added to the samples, followed by centrifugation to collect the supernatant. […] The samples were then mixed with Ehrlich’s solution (400 μl) and heated at 65 °C for 20 min to develop color. After samples were cooled on ice and centrifuged to remove precipitates, the optical density of each supernatant was measured at 560 nm. Hydroxyproline concentrations were calculated from the hydroxyproline standard curve. Kidney hydroxyproline contents were expressed as μg per mg protein, and the amount of protein was determined using the BCA Protein Assay Kit (Thermo Fisher Scientific).
At the end of the UUO study, the left kidney was fixed in Bouin’s solution and embedded in paraffin. Kidney sections were stained using picro-Sirius red solution (Waldeck). To quantify the interstitial fibrosis area, brightfield images in the corticomedullary region were captured using a digital camera (DFC295) at 200-fold magnification, and the positive areas in five fields per section were measured using ImageJ software (National Institute of Health).
Paraffin sections were deparaffinized and hydrophilized with xylene, 100–70% alcohol series and RO water, and then circles were drawn around the kidney sections. […] After washing with PBS, kidney sections were treated with PBS with Tween-20 (PBST), followed by incubation with Block Ace (DS Pharma Biomedical) at room temperature for 10 min. The sections were incubated with the primary antibody (anti-collagen I) at 4 °C overnight. After washing with PBS, kidney sections were treated with PBST, followed by incubation with secondary antibody at room temperature for 30 min. After washing with PBS, kidney sections were fixed with 1% glutaraldehyde solution at room temperature for 1 min. After washing with RO water, kidney sections were treated with PBST and then colored using a chromogenic substrate (Simple Stain DAB, Nichirei Bioscience). After washing with RO water, kidney sections were immersed in an eightfold-diluted hematoxylin solution for 1 min and washed with RO water immediately. […] For scoring of IHC analyses, brightfield images were captured using a digital camera (DFC295) at 200-fold magnification, and the score in one field per section was determined.

[6] = G5 Nintedanib 60mpk QD, Fig 3B-C

## C[C@@H]1C[C@H]2[C@@H]3CCC4=CC(=O)C=C[C@]4(C)[C@@]3(F)[C@@H](O)C[C@]2(C)[C@@]1(O)C(=O)CO [Dexamethasone, reference compound]
C57BL/6 mice [1]
  IL-1β: 90.1547 and 104.645 and 85.96 and 83.2907 and 79.4774 and 99.688 and 85.1973 and 77.1894
  IL-4: 38.428 and 35.2518 and 35.7056 and 41.1504 and 38.1255 and 36.613 and 38.8817 and 44.3266
  IL-6: 27.9 and 24.66 and 28.93 and 26.28 and 30.56 and 33.5 and 31.73 and 30.41
  IL-7: 25.06 and 25.43 and 30.03 and 28.19 and 29.85 and 32.24 and 34.63 and 29.29
  Lymphocytes: 11000 and 9300 and 5750 and 9600 and 6400 and 32400 and 4950 and 10750
  TNF-alpha: 362.89 and 452.57 and 397.89 and 371.64 and 437.26 and 448.2 and 351.95 and 301.64

## OC1CCC(Oc2cccc3cnc(Nc4ccc5nc[nH]c5c4)nc23)CC1 (stereo not drawn) [NCB-0846]
[2]
  inhibition: > 80%

## COC(=O)c1ccc2c(c1)NC(=O)/C2=C(\Nc1ccc(N(C)C(=O)CN2CCN(C)CC2)cc1)c1ccccc1 [Nintedanib, reference compound]
C57BL/6 mice [3]; 60mpk QD
  HE staining (inflammation area): 0.45 and 0.15 and 0.63 and 0.09 and 1.34 and 0.26 and 0.72 and 0.83 and 1.48 and 0.9
  IL-1beta in BALF: 168.67 and 169.31 and 175.04 and 171.22 and 152.11 and 187.14 and 147.65 and 164.21
  IL-6 in BALF: 147.17 and 136.31 and 119.43 and 143.55 and 137.52 and 155.01 and 125.46 and 138.12 and 158.63
  monocytes, cell count in BALF: 87000 and 128700 and 121600 and 174600 and 58800 and 161100 and 39800 and 37000 and 99000 and 75600
  neutrophils, cell count in BALF: 0
C57BL/6 mice [3]; [6]
  Lung function (Penh): 0.5478 and 2.603 and 0.6904 and 2.472 and 0.7934 and 0.9276 and 0.6395 and 0.7208 and 1.0675 and 0.6757 and 1.195 and 2.42 and 0.41
  Masson Trichrome's staining: 0.55 and 0.4 and 0.78 and 0.03 and 1.61 and 0.54 and 0.87 and 0.56 and 1.52 and 0.39
  Modified Ashcroft Score: 3.5 and 2.5 and 1.75 and 1.25 and 2.25 and 3.25 and 0.5
  collagen I: 2.73 and 0.02 and 0.37 and 0.05 and 0.16 and 0.9 and 0.94 and 0.03 and 0.07
  α-SMA: 0.19 and 0.04 and 0.06 and 0.17 and 0.42 and 0.08 and 0.45 and 0.15 and 0.22 and 0.14

## Cc1ccc(=O)n(-c2ccccc2)c1 [PFD, reference compound]
Sprague Dawley rats
  Cdyn: 0.3225 mL/cmH2O and 0.3123 mL/cmH2O and 0.3091 mL/cmH2O and 0.2795 mL/cmH2O and 0.2995 mL/cmH2O and 0.311 mL/cmH2O and 0.2781 mL/cmH2O and 0.3041 mL/cmH2O and 0.3215 mL/cmH2O and 0.2768 mL/cmH2O and 0.3388 mL/cmH2O and 0.3313 mL/cmH2O
  FVC: 11.834 and 11.621 and 10.998 and 9.152 and 10.235 and 10.576 and 10.334 and 10.683 and 12.105 and 9.791 and 11.908 and 11.529
  HE staining for inflammatory infiltration: 7.178 and 19.4033 and 79.9063 and 22.6394 and 11.901 and 21.4024 and 18.4629 and 10.7655 and 14.7132 and 7.539 and 10.0121 and 11.9271
  MT staining for fibrosis: 10.0525 and 23.681 and 70.2292 and 22.9771 and 14.4065 and 16.7608 and 19.0061 and 11.0741 and 14.7041 and 7.51 and 11.2668 and 15.3486
  Modified Ashcroft Score: 2.42 and 3.08 and 3.92 and 2.83 and 3.17 and 2.75 and 2 and 2.08 and 2.33 and 2.5
  RL: 0.1938 cmH2O and 0.2018 cmH2O and 0.2011 cmH2O and 0.2233 cmH2O and 0.2084 cmH2O and 0.2023 cmH2O and 0.2267 cmH2O and 0.2069 cmH2O and 0.196 cmH2O and 0.2278 cmH2O and 0.184 cmH2O and 0.1887 cmH2O
C57BL/6 mice [4]
  Modified Ashcroft Score: 4.5 and 5.25 and 5 and 4.75 and 5.5 and 4.25

## Cc1cccc(-c2[nH]c(C(C)(C)C)nc2-c2ccc3nccnc3c2)n1 [SB525334, reference compound]
C57BL/6 mice [5]
  Collagen Type 1 score: 1
C57BL/6 mice [5]; 100 mg/kg
  Fibrosis area (sirius red positive area): 0.79 and 1.13 and 0.97 and 0.36 and 0.56 and 0.41 and 0.76 and 0.48
  Kidney hydroxyproline: 3.88 and 4.04 and 4.13 and 2.51 and 3.1 and 4.54 and 4.91
